Laboratory results from patent US20230404969A1, “COMPOSITIONS AND METHOD FOR EFFECTIVE MANAGEMENT OF PERITONITIS” (priority 2022, published 2023).

Columns and labels:
IL-12p70 = experiment: Cytometric Bead Array of peritoneal fluid, chronic zymosan peritonitis: IL-12; format: in vivo, mouse; conditions: 2 mg/kg, vs Zymosan control
Experimental: (§1) Peritoneal inflammation was induced by Zymosan A (Sigma Chemical) (Masashi et al. Zymosan, but Not Lipopolysaccharide, Triggers Severe and Progressive Peritoneal Injury Accompanied by complement Activation in a Rat Peritonitis Model) was prepared freshly in sterile, 0.9% w/v saline, and 0.5 ml was injected i.p. from day 0 to Day 5. The lymphocyte population in the peripheral blood was determined with a flow cytometer. Cells were phenotyped by flow cytometry with the following primary antibodies: CD4 (FITC) and CD8 (PE). Cells were gated broadly on all live lymphocyte cells, with only debris and multiple cell clusters being excluded. Analysis of mean fluorescence intensity was done and percentage cell population was evaluated. […]
(§2) The Cytometric Bead Array (Mouse Inflammation kit) was used to study cytokines in peritoneal fluid. […] Briefly, a mixture of 6 capture bead populations (50 μl) with distinct fluorescence intensities (detected in FL3) coated with antibodies specific for the above cytokines was mixed with each sample/standard (50 μl). […] Following acquisition of data by two colour cytometric analysis, the sample results were analysed using CBA software (BD Biosciences). […] Individual cytokine concentration ratios were indicated by their fluorescent intensities and was determined by interpolation from the corresponding standard curve.

MCP-1 = experiment: Cytometric Bead Array of peritoneal fluid, chronic zymosan peritonitis: MCP-1; format: in vivo, mouse; conditions: 2 mg/kg, vs Zymosan control
Experimental: as §1, §2

CD4+ T cells = experiment: Zymosan peritonitis chronic study: peripheral blood CD4+ T cell population (flow cytometry); format: in vivo, mouse; conditions: Withanone 2 mg/kg, day 36
Experimental: as §1, with “evaluated. The test drugs were administered for 30 days after the induction of peritonitis.” for “evaluated.”
(§3) Flow cytometry enables the characterization of cells and subcellular organelles on the basis of size and granularity and a number of different parameters defined by fluorescent probes. […] Fluorochrome labelled monoclonal antibodies directed against co-receptors CD4 and CD8 were used to quantify the lymphocyte subsets in a multiparametric flow cytometric assay. […]

[1] = test system: Lactobacillus acidophilus (Gram positive); experiment: Bacterial translocation from the gut into organs: L. acidophilus; format: in vivo; conditions: Withanone 2 mg/kg; positive/6 mice
Experimental: (§4) Peritoneal inflammation was induced by Zymosan A (Sigma Chemical) (Masashi et al. Zymosan, but Not Lipopolysaccharide, Triggers Severe and Progressive Peritoneal Injury Accompanied by complement Activation in a Rat Peritonitis Model) was prepared freshly in sterile, 0.9% w/v saline, and 0.5 ml was injected i.p. from day 0 to Day 5. The lymphocyte population in the peripheral blood was determined with a flow cytometer. Cells were phenotyped by flow cytometry with the following primary antibodies: CD4 (FITC) and CD8 (PE). Cells were gated broadly on all live lymphocyte cells, with only debris and multiple cell clusters being excluded. Analysis of mean fluorescence intensity was done and percentage cell population was evaluated. The test drugs were administered for 30 days after the induction of peritonitis. On 36th day the peritoneal cavity was lavaged with 1.5 ml saline, and after a 30-s gentle manual massage, 0.5 ml exudate was retrieved, centrifuged at 3000 g for 3 min, and frozen at […] prior to cytokine and chemotactic-factor assessment.
(§5) Intestine serves as a barrier in preventing gut bacteria and/or endotoxin from spreading to organs and tissues. It is also known that bacterial translocation occurs in critically ill or immunocompromised patients, and the physical disruption of mucosal barrier in vivo rodent models seem to be a key factor Tor translocation (Deitch et al. Effect of hemorrhagic shock on bacterial translocation, intestinal morphology, and intestinal permeability in conventional and antibiotic-decontaminated rats; Critical Care Medicine; 1990 18(5)). Bacterial translocation from the gut into the peritoneal cavity and organs was analyzed. The mesenteric lymph nodes, liver, and spleen of mice, study group of 30, were removed using sterile instruments. The organs were then homogenized in 1 ml of sterile cooked meat broth and 50 μl of organ homogenate was spread on blood agar plates to detect aerobic bacteria and Eosin Methylene blue agar plates to detect specially for E. coli. These plates were then incubated at 37° C. for 2 days. […]

CD8+ T cells = experiment: Zymosan peritonitis chronic study: peripheral blood CD8+ T cell population (flow cytometry); format: in vivo, mouse; conditions: Withanone 2 mg/kg, day 36
Experimental: as §1, with “evaluated. The test drugs were administered for 30 days after the induction of peritonitis.” for “evaluated.”
as §3

Procalcitonin = Procalcitonin in serum (ELISA), chronic zymosan peritonitis; format: in vivo, mouse; conditions: 2 mg/kg
Experimental: as §4
Procalcitonin is a precursor for calcitonin, a peptide hormone involved in calcium homeostasis. In response to pro-inflammatory stimulus of bacterial origin, the procalcitonin level rises. The blood was collected from retro-orbital plexus from the animals of all groups. The blood was allowed to stand for 2 hrs without addition of anti-coagulant. […]

IFN-γ = experiment: Cytometric Bead Array of peritoneal fluid, chronic zymosan peritonitis: IFN-γ; format: in vivo, mouse; conditions: 2 mg/kg, vs Zymosan control
Experimental: as §1, §2

E. Coli (Gram-negative) = experiment: Bacterial translocation from the gut into organs: E. coli; format: in vivo; conditions: Withanone 2 mg/kg; positive/6 mice
Experimental: as §4, §5

IL-1β = experiment: Extracellular in vivo IL-1β estimation in serum from treated mice after LPS injection (ELISA); conditions: 1 mg/kg p.o for 6 days, serum 90 mins after LPS injection, ↑ upregulation
Experimental: BALM male mice aged 6-8 weeks were maintained at 22±2° C. under 12/12 h light dark cycle. Mice received oral treatment of test drugs at graded doses (w/v) for 6 days, followed by intravenous injection of 1 mg/kg (Brieva et al. Immunoferon, a glycoconjugate of natural origin, inhibits LPS-induced TNF-α production and inflammatory responses. International Immunopharmacology (2001) 1, 1979-1987). Six mice were employed in each group and experiments were performed in triplicates. Blood was collected from retro-orbital plexus of the experimental animals and serum was separated. TNF-α, IL-1β production was evaluated by a commercial ELISA kit in serum from treated mice, 90 mins after LPS injection.

CC1=C(C)C(=O)O[C@@H]([C@@H](C)[C@@]2(O)CC[C@H]3[C@@H]4[C@@H]5O[C@@H]5[C@@]5(O)CC=CC(=O)[C@]5(C)[C@H]4CC[C@@]32C)C1 [Withanone]
Inhibition of IL-12 (IL-12p70): 53%
Inhibition of MCP-1 (MCP-1): 51%
Inhibition of CD4+ compared to T cell population of Zymosan control (CD4+ T cells): 46%
Bacterial translocation, Liver, L. acidophilus [1]: 1/6
Bacterial translocation, Mesenteric Lymph Nodes, L. acidophilus [1]: 1/6
Bacterial translocation, Spleen, L. acidophilus [1]: 1/6
Inhibition of CD8+ compared to T cell population of Zymosan control (CD8+ T cells): 44%
Decrease of expression level of procalcitonin compared to the Zymosan control (Procalcitonin): ~60%
Inhibition of IFN-γ (IFN-γ): 44%
Bacterial translocation, Liver, E. coli (E. Coli (Gram-negative)): 1/6
Bacterial translocation, Mesenteric Lymph Nodes, E. coli (E. Coli (Gram-negative)): 2/6
Bacterial translocation, Spleen, E. coli (E. Coli (Gram-negative)): 1/6
Percentage IL-1β inhibition compared to LPS control (IL-1β): 24.5%
